Experimental data taken from US12065442B2, “Tropomyosin receptor kinase (TRK) degradation compounds and methods of use” (Cullgen (Shanghai), Inc., priority 2018, dated 2024).
Entries after “also recorded” stand apart in the source; their conditions may differ. Like-named read-outs stand apart in the source and are kept apart here. One block for each compound: values may come before it.

Legend:
[1] = Body weight of xenograft-bearing mice (toxicity); assay type: in vivo, Athymic nude mice
Experimental: (§1) Athymic nude mice bearing KM12 subcutaneous xenograft tumors at the right flank were intraperitoneally treated with vehicle or 25 mg/kg CPD-060 once per day (qd), twice per day (bid), or once every two days (q2d). Tumor volumes were assessed every two days and expressed as length×width×width/2. Body weights of experimental mice were also measured to assess the toxicity of compounds.
(§2) Athymic nude mice bearing KM12 subcutaneous xenograft tumors at the right flank were treated with vehicle, 10-20 mg/kg TR-181 or TR-198 once per day (qd), or twice per day (bid) via oral gavage. Tumor volumes were assessed every two days and expressed as length×width×width/2. Body weights of experimental mice were also measured to assess the toxicity of compounds.
(§3) All animal experiments were performed under protocols approved by the Institutional Animal Care and Use Committee (IACUC) of Cullgen. Athymic nude mice (male, 5-weeks old) received 5 million KM12 cells subcutaneously inoculated at the right flank site. Ten days following inoculation, tumors were approximately 500 mm3 in size. Tumor-bearing mice were treated intraperitoneally with vehicle or bivalent compounds at indicated doses. Tumor sizes and body weight of mice were measured every 2 days. In addition, immunoblotting assays were employed to assess the levels of TRKA fusion proteins in xenograft tumors around 500 mm^3 in size following drug administration. At indicated hours after drug administration, selected mice were sacrificed, tumors were resected. Small chunks of tumors were homogenized for immunoblotting of TPM3-TPKA and other proteins as indicated.

TPM3-TRKA fusion protein [2] = molecular target: T1, TPM3-TRKA fusion protein (Homo sapiens, UniProt P04629+P06753+Q96SW2); assay: Immunoblotting of TPM3-TRKA fusion protein in KM12 cells; assay type: cell-based; design: The resulted chimeric proteins always retain the kinase domain of TRK proteins; TPM3 (N-terminal fusion partner, natural gene fusion); endogenous in cells; host or cells: KM12 colon cancer cells
T1 sequence (P06753+P04629 fused): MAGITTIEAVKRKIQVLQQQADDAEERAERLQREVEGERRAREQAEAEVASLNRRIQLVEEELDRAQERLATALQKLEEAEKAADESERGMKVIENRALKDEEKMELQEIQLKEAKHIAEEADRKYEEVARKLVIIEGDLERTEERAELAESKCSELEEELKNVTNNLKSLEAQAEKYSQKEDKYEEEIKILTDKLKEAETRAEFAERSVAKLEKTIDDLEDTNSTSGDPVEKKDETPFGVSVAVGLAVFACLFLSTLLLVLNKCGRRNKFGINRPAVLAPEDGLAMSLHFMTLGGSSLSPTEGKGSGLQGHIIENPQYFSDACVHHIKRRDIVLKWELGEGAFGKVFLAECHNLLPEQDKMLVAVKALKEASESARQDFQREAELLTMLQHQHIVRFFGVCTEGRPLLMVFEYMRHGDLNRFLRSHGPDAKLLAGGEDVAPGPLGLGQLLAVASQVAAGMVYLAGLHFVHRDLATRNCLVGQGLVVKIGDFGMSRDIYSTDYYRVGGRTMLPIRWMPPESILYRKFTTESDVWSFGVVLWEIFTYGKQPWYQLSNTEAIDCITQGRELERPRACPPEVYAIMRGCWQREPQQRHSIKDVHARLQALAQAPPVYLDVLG
T1 sequence (Q96SW2 whole entry, the tested form may be a part): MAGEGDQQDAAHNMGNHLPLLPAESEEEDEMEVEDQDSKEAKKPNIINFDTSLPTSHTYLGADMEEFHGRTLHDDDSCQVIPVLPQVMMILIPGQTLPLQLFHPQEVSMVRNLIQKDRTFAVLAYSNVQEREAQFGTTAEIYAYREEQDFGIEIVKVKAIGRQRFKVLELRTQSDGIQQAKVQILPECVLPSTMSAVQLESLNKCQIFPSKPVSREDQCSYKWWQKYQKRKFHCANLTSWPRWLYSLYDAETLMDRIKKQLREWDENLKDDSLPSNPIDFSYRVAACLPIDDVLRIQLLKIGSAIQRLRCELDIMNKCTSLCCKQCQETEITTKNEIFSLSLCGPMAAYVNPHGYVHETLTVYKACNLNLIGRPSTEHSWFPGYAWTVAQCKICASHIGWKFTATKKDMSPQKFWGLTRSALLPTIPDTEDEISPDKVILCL
T1 sequence (Q16531 whole entry partner, the tested form may be a part): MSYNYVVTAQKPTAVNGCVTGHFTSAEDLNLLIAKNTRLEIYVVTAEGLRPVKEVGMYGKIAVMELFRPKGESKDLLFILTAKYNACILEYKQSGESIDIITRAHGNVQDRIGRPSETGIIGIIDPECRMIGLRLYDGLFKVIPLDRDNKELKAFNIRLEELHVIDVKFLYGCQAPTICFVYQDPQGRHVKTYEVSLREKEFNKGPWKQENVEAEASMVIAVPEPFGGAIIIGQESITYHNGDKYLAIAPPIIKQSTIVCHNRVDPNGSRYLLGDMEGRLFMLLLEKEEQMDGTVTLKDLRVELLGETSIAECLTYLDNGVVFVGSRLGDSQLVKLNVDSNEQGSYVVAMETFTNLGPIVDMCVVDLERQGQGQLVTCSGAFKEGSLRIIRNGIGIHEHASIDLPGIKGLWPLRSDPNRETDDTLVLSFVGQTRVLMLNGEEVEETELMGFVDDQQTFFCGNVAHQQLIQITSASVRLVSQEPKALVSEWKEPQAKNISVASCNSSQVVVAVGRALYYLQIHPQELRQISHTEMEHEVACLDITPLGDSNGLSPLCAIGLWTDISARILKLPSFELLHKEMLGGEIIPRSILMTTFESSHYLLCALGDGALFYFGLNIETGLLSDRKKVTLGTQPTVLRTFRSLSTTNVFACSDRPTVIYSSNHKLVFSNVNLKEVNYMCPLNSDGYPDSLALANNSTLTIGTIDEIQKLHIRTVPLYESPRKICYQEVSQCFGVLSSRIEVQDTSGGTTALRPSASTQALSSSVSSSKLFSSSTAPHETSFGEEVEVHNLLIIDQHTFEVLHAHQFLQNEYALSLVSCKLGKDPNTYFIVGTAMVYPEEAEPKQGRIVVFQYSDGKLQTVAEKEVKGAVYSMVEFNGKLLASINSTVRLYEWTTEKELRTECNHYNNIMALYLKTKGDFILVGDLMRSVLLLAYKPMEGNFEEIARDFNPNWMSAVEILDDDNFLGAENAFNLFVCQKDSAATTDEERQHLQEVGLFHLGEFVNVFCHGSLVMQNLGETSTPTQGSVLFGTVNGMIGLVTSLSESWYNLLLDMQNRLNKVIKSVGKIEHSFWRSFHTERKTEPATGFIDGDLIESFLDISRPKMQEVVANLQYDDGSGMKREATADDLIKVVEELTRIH
Experimental: Specific exemplary bivalent compounds were characterized in KM12 cells. […] Cells were collected, lysed and subject to immunoblotting using an antibody specific to TRK proteins. GAPDH was included as the loading control. DMSO was used as the negative control.
KM12 cells were treated with DMSO or indicated compounds at 100 nM for 16 hours.
KM12 cells were treated with CPD-027, CPD-053, and CPD-060 at 100 nM for indicated incubation time. […]
(§4) KM12 or HEL cells were treated with a dose range of compound TR-123 or TR-123-negative. The latter lost binding to cereblon (CRBN) due to a chemical modification.
KM12 or HEL cells were treated with a single dose of compound TR-123 or combination with MG-132, Bortezomib, MLN4924 or Pomalidomide. […]
(§5) Cultured cells were washed with cold PBS once and lysed in cold RIPA buffer supplemented with protease inhibitors and phosphatase inhibitors (Beyotime Biotechnology). The solutions were then incubated at 4° C. for 30 minutes with gentle agitation to fully lyse cells. For tumor tissues, tumors were cut into small pieces, milled with cold RIPA buffer using a mechanical homogenizer and lysed for 1 hour at 4° C. Cell lysates were centrifuged at 13,000 rpm for 10 minutes at 4° C. and pellets were discarded. Total protein concentrations in the lysates were determined by BCA assays (Beyotime Biotechnology). Cell lysates were mixed with Laemmli loading buffer to 1× and heated at 99° C. for 5 min. Proteins were resolved on SDS-PAGE and visualized by chemiluminescence. Images were taken by a ChemiDoc MP Imaging system (Bio-Rad). Protein bands were quantitated using the software provided by Bio-Rad.

KM12 cells = assay: Cell viability assay (CellTiter-Glo) in KM12 cells; assay type: cell-based; conditions: Homo sapiens, 72 h, KM12 cell viability, CellTiter-Glo, 3 days, read-out: IC50
[3] = tested on: KM12 subcutaneous xenograft tumors; assay: KM12 subcutaneous xenograft tumor growth study; assay type: in vivo, Athymic nude mice
Experimental: as §1, §2, §3

TPM3-TRKA fusion protein [4] = molecular target: T1, TPM3-TRKA fusion protein; assay: Immunoblotting of TPM3-TRKA in KM12 subcutaneous xenograft tumors; assay type: in vivo, Athymic nude mice; design: The resulted chimeric proteins always retain the kinase domain of TRK proteins; TPM3 (N-terminal fusion partner, natural gene fusion); from tissue; host or cells: KM12 subcutaneous xenograft tumors in athymic nude mice
Experimental: In addition to cultured cells, athymic nude mice bearing KM12 subcutaneous xenograft tumors at the right flank were intraperitoneally treated with 10, 20, or 50 mg/kg CPD-053, CPD-027, or CPD-060. Four hours after drug administration, animals were sacrificed for immunoblotting of TPM3-TPKA in homogenized xenograft tumor masses. The label “a” or “b” represents two different samples of the same xenograft tumor.
Athymic nude mice bearing KM12 subcutaneous xenograft tumors at the right flank were intraperitoneally treated with 10, 20, or 50 mg/kg CPD-053, CPD-027, or CPD-060, as indicated in FIG. 3. Four hours after drug administration, animals were sacrificed for immunoblotting of TPM3-TPKA in homogenized xenograft tumor chunks. The label “a” or “b” represents two different chunks of the same xenograft tumor.
Athymic nude mice bearing KM12 subcutaneous xenograft tumors at the right flank were intraperitoneally or orally treated with bivalent compounds at indicated dose. Eight hours after drug administration, animals were sacrificed for immunoblotting of TPM3-TPKA in homogenized xenograft tumor samples.
as §5, §3

TRK-fusions = conditions: cited from earlier work
[5] = Mouse pharmacokinetic (PK) studies; assay type: in vivo; conditions: mice; for plasma exposure: single 20 mg/kg intraperitoneal injection, over 12 hours (FIG. 11), 20 mg/kg
Experimental: To investigate the pharmacokinetics of bi-functional compounds, exemplified by TR-123, a single 20 mg/kg intraperitoneal injection was evaluated. […] Additionally, doses of 2 mg/kg TR-198 via intravenous injection and 20 mg/kg TR-198 via oral gavage were evaluated in mice.
A single 20 mg/kg intraperitoneal injection of compound TR-123 was evaluated. Plasma concentrations of TR-123 reported at each of the 6 time points (30 min, 1 h, 2 h, 4 h, 8 h, and 12 h post compound administration) are the average values from 3 test animals.
A single 2 mg/kg intravenous injection and 20 mg/kg oral gavage of TR-198 were evaluated in mice.
Plasma concentrations of TR-198 reported at each of the 6 time points (5 min, 30 min, 2 h, 4 h, 8 h, and 12 h post compound administration via IV, 30 min, 1 h, 2 h, 4 h, 8 h, and 12 h post compound administration via p.o.) are the average values from 3 test animals.
Standard PK studies were conducted using male Swiss Albino mice by Sai Life Sciences. A single 20 mg/kg intraperitoneal (IP) injection of compound TR-123 was evaluated. Plasma concentrations of TR-123 reported at each of the 6 time points (30 min, 1 h, 2 h, 4 h, 8 h, and 12 h post dosing) are the average values from 3 test animals. Error bars represent+SD.

wild type TRKA protein = molecular target: T2, wild type TRKA protein (Homo sapiens, UniProt P04629); assay: Immunoblotting of wild type TRKA protein in HEL cells; assay type: cell-based
T2 construct: immunoblot of wild type TRKA protein expressed by HEL cells; endogenous in cells; host or cells: HEL cells
T2 sequence (P04629 33-796): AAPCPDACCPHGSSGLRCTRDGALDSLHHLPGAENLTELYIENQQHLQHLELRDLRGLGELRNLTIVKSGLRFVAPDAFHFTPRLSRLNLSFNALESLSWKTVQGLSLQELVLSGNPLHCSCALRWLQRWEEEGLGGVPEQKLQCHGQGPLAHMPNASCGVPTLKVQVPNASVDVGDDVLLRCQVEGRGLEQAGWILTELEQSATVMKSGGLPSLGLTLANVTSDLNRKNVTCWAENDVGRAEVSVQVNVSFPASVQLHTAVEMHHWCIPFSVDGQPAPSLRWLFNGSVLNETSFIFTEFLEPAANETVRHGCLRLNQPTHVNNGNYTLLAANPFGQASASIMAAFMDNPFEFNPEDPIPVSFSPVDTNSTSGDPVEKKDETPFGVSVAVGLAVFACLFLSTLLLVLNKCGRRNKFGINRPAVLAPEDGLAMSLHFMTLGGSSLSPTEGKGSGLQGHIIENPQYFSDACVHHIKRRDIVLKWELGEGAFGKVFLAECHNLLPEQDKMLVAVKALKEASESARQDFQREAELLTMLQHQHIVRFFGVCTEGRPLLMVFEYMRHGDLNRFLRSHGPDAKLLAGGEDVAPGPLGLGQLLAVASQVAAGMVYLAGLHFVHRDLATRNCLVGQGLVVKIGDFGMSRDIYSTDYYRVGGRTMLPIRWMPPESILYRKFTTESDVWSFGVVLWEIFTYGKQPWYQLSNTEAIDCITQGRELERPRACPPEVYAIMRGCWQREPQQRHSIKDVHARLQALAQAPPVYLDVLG
Experimental: as §4
KM12 or HEL cells were treated with a single dose of compound TR-123 or combination with MG-132, Bortezomib, MLN4924 or Pomalidomide.
as §5

time after adding compound at which significant degradation of TPM3-TRKA was detected (TPM3-TRKA fusion protein [2]; 100 nM (FIG. 2)): 15 min
TPM3-TRKA protein levels, time course (TPM3-TRKA fusion protein [2]; 100 nM, indicated incubation time (FIG. 2)): rapidly reduced TPM3-TRKA protein levels
SMILES: O=C(CN1CCN(c2cccc(-c3cnc4ccc(N5CCC[C@@H]5c5cccc(F)c5)nn34)n2)CC1)NCCNc1cccc2c1C(=O)N(C1CCC(=O)NC1=O)C2=O (stereo partly drawn) [CPD-060, N-(2-((2-(2,6-dioxopiperidin-3-yl)-1,3-dioxoisoindolin-4-yl)amino)ethyl)-2-(4-(6-(6-((R)-2-(3-fluorophenyl)pyrrolidin-1-yl)imidazo[1,2-b]pyridazin-3-yl)pyridin-2-yl)piperazin-1-yl)acetamide]
body weight ([1]; 25 mg/kg intraperitoneally qd, bid or q2d (FIG. 12B)): without inducing substantial weight losses
TPM3-TRKA protein levels (TPM3-TRKA fusion protein [2]; 100 nM, 16 hours (FIG. 1A-1C)): particularly effective in reducing TPM3-TRKA protein levels
IC50 (KM12 cells; Table 2): 6 nM
growth of KM12 subcutaneous xenograft tumors ([3]; 25 mg/kg intraperitoneally qd, bid or q2d (FIG. 12A)): significantly repressed the growth
TPM3-TRKA protein levels in KM12 subcutaneous xenograft tumors (TPM3-TRKA fusion protein [4]; 10, 20, or 50 mg/kg intraperitoneally, single dose, four hours after administration (FIG. 3)): significantly reducing TPM3-TRKA protein levels

SMILES: O=C(Nc1cnn2ccc(N3CCC[C@@H]3c3cc(F)ccc3F)nc12)N1CC[C@H](O)C1 [LOXO-101, larotrectinib]
patients who responded to the therapy (TRK-fusions; phase 2 (Drilon et al., 2018)): 75%
patients remaining progression-free (TRK-fusions; phase 2, at 1 year (Drilon et al., 2018)): 55%
IC50 (KM12 cells; Table 3): 25 nM

plasma exposure [5]: good plasma exposure
SMILES: O=C1CCC(N2C(=O)c3ccc(NCC(=O)N4CCN(c5cccc(-c6cnc7ccc(N8CCC[C@@H]8c8cccc(F)c8)nn67)n5)CC4)cc3C2=O)C(=O)N1 (stereo partly shown) [TR123]

TRKA degradation in combination with MG-132, Bortezomib, MLN4924 or Pomalidomide (wild type TRKA protein; single dose (FIG. 9B)): compromised
TRKA degradation in combination with MG-132, Bortezomib or MLN4924 (TPM3-TRKA fusion protein [2]; single dose (FIG. 9A)): compromised
plasma exposure [5]: significant plasma exposure
SMILES: O=C1CCC(N2C(=O)c3ccc(NCC(=O)N4CCN(c5cccc(-c6cnc7ccc(N8CCC[C@@H]8c8cccc(F)c8)nn67)n5)CC4)cc3C2=O)C(=O)N1 (stereo partly drawn) [TR-123, 2-(2,6-dioxopiperidin-3-yl)-5-((2-(4-(6-(6-((R)-2-(3-fluorophenyl)pyrrolidin-1-yl)imidazo[1,2-b]pyridazin-3-yl)pyridin-2-yl)piperazin-1-yl)-2-oxoethyl)amino)isoindoline-1,3-dione]
TRKA protein levels (wild type TRKA protein; dose range (FIG. 8B)): reduced TRKA protein levels in a concentration-dependent manner; also recorded: significant degradation of full-length TRKA
TRKA protein levels (TPM3-TRKA fusion protein [2]; dose range (FIG. 8A)): reduced TRKA protein levels in a concentration-dependent manner
IC50 (KM12 cells; Table 3): 1.7 nM
TPM3-TRKA degradation in KM12 subcutaneous tumors (TPM3-TRKA fusion protein [4]; intraperitoneal or oral administration, eight hours after administration (FIG. 10)): exhibited the activities to induce TPM3-TRKA degradation

bioavailability ([5]; male, Swiss Albino, mouse, plasma, 2 mg/kg intravenous injection and 20 mg/kg oral gavage, over 12 hours (FIG. 14)): ~16%
SMILES: O=C1CCC(N2C(=O)c3ccc(N4CC(CN5CCN(c6cccc(-c7cnc8ccc(N9CCC[C@@H]9c9cccc(F)c9)nn78)n6)CC5)C4)cc3C2=O)C(=O)N1 (stereo partly drawn) [TR-198, 2-(2,6-dioxopiperidin-3-yl)-5-(3-((4-(6-(6-((R)-2-(3-fluorophenyl)pyrrolidin-1-yl)imidazo[1,2-b]pyridazin-3-yl)pyridin-2-yl)piperazin-1-yl)methyl)azetidin-1-yl)isoindoline-1,3-dione]
body weight ([1]; 10-20 mg/kg qd or bid via oral gavage (FIG. 15B)): without inducing substantial weight losses
IC50 (KM12 cells; Table 3): 5.5 nM
growth of KM12 subcutaneous xenograft tumors ([3]; 10-20 mg/kg qd or bid via oral gavage (FIG. 15A)): significant in vivo anti-tumor activity; also recorded: significantly repressed the growth
